One series in a line: in vitro. Conditions: African green monkey.
In series [1] the test system is P. falciparum CSL-2 (NRNL). Put plainly: microbe, parasite or virus in culture. Format: cell-based. Conditions: Plasmodium falciparum, read-out: IC50 P. falciparum CSL-2 (NRNL).
In the next series the test system is P. falciparum W2 (IRNI). Put plainly: microbe, parasite or virus in culture. Format: cell-based. Conditions: Plasmodium falciparum, W2, read-out: IC50 P. falciparum W2 (IRNI).
The subject of series [2] is P. falciparum K1CB1 (NRNI). Put plainly: microbe, parasite or virus in culture. Conditions: Plasmodium falciparum, read-out: IC50 P. falciparum K1CB1 (NRNI). Format: cell-based.
A further series concerns the target T1, hDHFR (Homo sapiens, UniProt P00374).
T1 sequence (P00374 1-187): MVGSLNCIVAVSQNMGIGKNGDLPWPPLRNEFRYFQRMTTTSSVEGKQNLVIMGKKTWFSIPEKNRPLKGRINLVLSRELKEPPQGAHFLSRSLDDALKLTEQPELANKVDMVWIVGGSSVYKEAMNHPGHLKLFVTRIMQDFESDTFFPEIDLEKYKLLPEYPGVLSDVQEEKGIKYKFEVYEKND
Conditions: read-out: Ki hDHFR.

Series [3] concerns P. falciparum V1/S (IRNL). Conditions: ± SD; cited from earlier work.
Series [4] relates to wild-type and Pyr-resistant mutant P. falciparum. The series can be described thus: microbe, parasite or virus in culture. It is filed as cell-based. As to conditions: Plasmodium falciparum, read-out: IC50 against both wild-type and Pyr-resistant mutant P. falciparum.
In series [5] the test system is P. falciparum V1/S (IRNL). The series can be described thus: microbe, parasite or virus in culture. Format: cell-based. Conditions: Plasmodium falciparum, read-out: IC50 P. falciparum V1/S (IRNL).
Series [6] has as its system P. falciparum TM4/8.2 (NCSI). The series can be described thus: microbe, parasite or virus in culture. It is filed as cell-based. Conditions: Plasmodium falciparum, read-out: IC50 P. falciparum TM4/8.2 (NCSI).
Series [7] has as its system surrogate cells (BL21(DE3) E. coli) expressing N51I+C59R+S108N+I164L quadruple mutant PfDHFR. Put plainly: Bacterial surrogate growth, cells expressing quadruple mutant PfDHFR. Format: cell-based, Escherichia coli. As to conditions: 100 µM BT1, M9 minimal medium, trimethoprim.
Series [8] deals with surrogate cells (BL21(DE3) E. coli) expressing wild-type PfDHFR. The series can be described thus: Bacterial surrogate growth, cells expressing wild-type PfDHFR. Format: cell-based, Escherichia coli. Conditions: 100 µM BT1, M9 minimal medium, trimethoprim.
A further series relates to Vero cells. More on the design: method as in PMID 11881993. Conditions: IC50 against Vero cells; read-out: cytotoxicity Vero cells; cited from earlier work.

The structures appear in SMILES notation. Read-outs that look alike come from different tables or passages of the source.

In the case of `Cc1nc(N)nc(N)c1OCCCOc1cc(Cl)c(Cl)cc1Cl` [P65, reference compound], the IC50 in “in vitro” turned out to be 4030 ± 410 nM; in series [1] it was 4400 ± 2100 nM; with P. falciparum W2 (IRNI) it was 2270 ± 650 nM; in series [2], 1920 ± 530 nM. Besides, on hDHFR, the Ki (in general, a dissociation constant, usually derived from enzyme kinetics or from competition with a known ligand) is 47.6 ± 4 nM.
`CCc1nc(N)nc(N)c1-c1ccc(Cl)cc1` [Pyr, pyrimethamine, reference compound]: the IC50 (in “in vitro”; in [3]) was above 100000 nM each time.
On to `CCc1nc(N)nc(N)c1OCCCOc1cccc(-c2c(N)nc(N)nc2CC)c1` [BT1], for which the IC50 in the series “in vitro” is 5940 ± 650 nM; in series [1], 510 ± 80 nM; in series [4], below 5000 nM; in the series on P. falciparum W2 (IRNI) it was 250 ± 50 nM; in series [2], 220 ± 60 nM; in series [5], 1720 ± 690 nM. The IC50 in [6] was 290 ± 50 nM. For the same compound, on hDHFR, the inhibition constant (Ki) was determined as 22.5 ± 2.9 nM. Besides, the “growth inhibition of surrogate cells” value in series [7] and in series [8] was “completely inhibitory” throughout.
As for `CCc1nc(N)nc(N)c1OCCCOc1ccc(-c2c(N)nc(N)nc2CC)cc1` [BT2], the Ki on hDHFR came to 18.1 ± 1.3 nM.
Take `CCc1nc(N)nc(N)c1OCCCOc1ccc(-c2c(N)nc(N)nc2CC)cc1` [BT2S]: the IC50 stood at 6300 ± 1500 nM in “in vitro”; 3950 ± 360 nM in series [1]; 2350 ± 100 nM in the series with P. falciparum W2 (IRNI); 1840 ± 310 nM in series [2]; 4400 ± 710 nM in series [5]; 63 ± 14 nM in series [6]. In addition, at hDHFR, the Ki worked out at 20.2 ± 3.3 nM.
As for `CCc1nc(N)nc(N)c1-c1ccc(OCCCOc2ccc(-c3c(N)nc(N)nc3CC)cc2)cc1` [BT3S], the IC50 stood at 2530 ± 440 nM in the series “in vitro”; 310 ± 20 nM in series [1]; 300 ± 30 nM in the series on P. falciparum W2 (IRNI); 330 ± 38 nM in [2]; 330 ± 23 nM in series [5]; 35 ± 3.3 nM in series [6]. On hDHFR, the inhibition constant (Ki) is 33.6 ± 10.6 nM.
In the case of `CCc1nc(N)nc(N)c1-c1cccc(Cl)c1` [P30], the IC50 in the series on Vero cells is 7000 nM.
